Assay results reported in BindingDB's records for doi:10.7270/Q20000JS (Johns Hopkins Ion Channel Center, 2010).

Biological target: Potassium voltage-gated channel subfamily KQT member 2 (Rattus norvegicus, UniProt O88943)
Experiment: potentiation of rat KCNQ2 current – cell-based, automated electrophysiology, mechanism study for KCNQ2 potentiator project, dose response (AID 2603)

Potassium voltage-gated channel subfamily KQT member 2, sequence (O88943 whole entry): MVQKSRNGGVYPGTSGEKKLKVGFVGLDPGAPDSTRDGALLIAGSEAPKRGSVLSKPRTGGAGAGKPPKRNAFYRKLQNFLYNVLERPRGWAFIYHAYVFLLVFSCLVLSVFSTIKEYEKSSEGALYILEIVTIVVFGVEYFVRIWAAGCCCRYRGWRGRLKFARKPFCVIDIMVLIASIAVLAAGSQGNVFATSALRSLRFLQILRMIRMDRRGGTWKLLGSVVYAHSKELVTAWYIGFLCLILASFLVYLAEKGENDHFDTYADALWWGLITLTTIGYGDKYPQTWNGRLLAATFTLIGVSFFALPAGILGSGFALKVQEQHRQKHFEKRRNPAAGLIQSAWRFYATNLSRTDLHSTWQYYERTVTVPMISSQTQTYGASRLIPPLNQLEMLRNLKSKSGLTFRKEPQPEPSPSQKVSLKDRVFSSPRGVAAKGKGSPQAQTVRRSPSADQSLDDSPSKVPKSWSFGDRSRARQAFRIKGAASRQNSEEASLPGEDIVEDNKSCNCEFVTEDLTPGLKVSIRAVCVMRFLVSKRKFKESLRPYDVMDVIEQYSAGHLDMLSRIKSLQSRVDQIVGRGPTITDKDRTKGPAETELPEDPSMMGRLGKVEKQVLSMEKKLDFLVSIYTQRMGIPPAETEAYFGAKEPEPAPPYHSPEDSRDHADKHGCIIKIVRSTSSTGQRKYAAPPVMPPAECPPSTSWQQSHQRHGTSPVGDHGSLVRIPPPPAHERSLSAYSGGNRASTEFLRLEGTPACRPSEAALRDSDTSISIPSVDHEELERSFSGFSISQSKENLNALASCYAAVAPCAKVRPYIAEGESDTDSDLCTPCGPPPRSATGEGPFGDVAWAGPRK

| EC50 | Structure (SMILES) |
| --- | --- |
| 3.7 µM | CC(C)N1C(=O)C(=NNc2ccc(Cl)c(C(=O)O)c2)c2ccccc21 [MLS000773916] |
| 537 µM | CC1=NC(=O)NC(c2cccc(O)c2)C1C(=O)OC1CCCCCCC1 (configuration not stated) [SMR000111748] |
